We go through 2 compounds from paper PMC6026274, “A GLP-1:CCK fusion peptide harnesses the synergistic effects on metabolism of CCK-1 and GLP-1 receptor agonism in mice” (Appetite, 2018).

In one data set the test system is Sprague Dawley rats. Nature of the data set: Kaolin intake in lean rats. The format is in vivo. The conditions noted are these: overnight fasted lean rats, single i.p. injection; C2816 7 or 50 nmol/kg, cisplatin 10 mg/kg; vs vehicle; n = 9/group. On the procedure: After the acclimation period, rats were given chow and kaolin diet (K50001, Research Diets, Billerica, MA) in adjacent separate compartments in a divided food hopper. Rats were randomized to treatment groups based on 24 h chow intake, 24 h kaolin intake and body weight (n = 9/group). […] Cisplatin (10 mg/kg; Sigma-Aldrich, St Louis, MO) was administered i.p. as a positive control. Chow and kaolin intake was recorded at 4 and 24 h. A final body weight was also recorded at 24 h.

Data set [1] concerns diet-induced obese (DIO) C57BL6 mice. Nature of the data set: Pharmacology study in DIO mice. It is filed as in vivo. The conditions noted are these: AC3174 and AC170222 7 nmol/kg each, C2816 and (pGlu-Gln)-CCK-8/exendin-4 50 nmol/kg. As for the experimental part: Obese male 10-week old C57BL6 mice (Jackson Laboratory) on high-fat diet (D12492, 60% kcal/fat, Research Diets) were single housed upon arrival and allowed to acclimate for 2 weeks. On day −3 mice were weighed and randomized to treatment groups (n = 8/group) based on body weight, with each mouse dosed once daily with two compounds or vehicle administered separately. […] Drug was administered once daily for 10 days intraperitoneally (5 mL/kg) 2 h prior to lights off.

Where [2] appears, read: terminal plasma, day 10, once daily i.p., mean ± SEM, n = 8, SEM.

Starred links: 1 amine or outer side, 2 acyl side, 3 side chain; linkers in the order of their positions; H or OH if unused. Non-standard residues stand in square brackets, D forms with d. Residues, ends and D or L forms follow the SMILES beside them. Groups on a side chain read outwards from the residue. *: point of attachment. NMeF = CN[C@@H](Cc1ccccc1)C(=O)O; NH(2-Me-phenyl) = Cc1ccccc1N*; Nle = CCCC[C@H](N)C(=O)O; X1 = O=C(Cc1ccc(O)cc1)*; CO = O=C([*:1])[*:2]

On to `N.N.[Cl][Pt][Cl]` [cisplatin, Cisplatin], for which the “Food (chow) intake at 4 h and 24 h post-dose” value with Sprague Dawley rats is “similarly reduced food intake as high dose C2816”.
As to `CCCC[C@H](NC(=O)Cc1ccc(O)cc1)C(=O)NCC(=O)N[C@@H](Cc1c[nH]c2ccccc12)C(=O)N[C@@H](CCCCNC(=O)Nc1ccccc1C)C(=O)N[C@@H](CC(=O)O)C(=O)N(C)[C@@H](Cc1ccccc1)C(N)=O` [AC170222] (X1-[Nle]GWK([CO-NH(2-Me-phenyl)])D[NMeF]-NH2), the Body weight change entry in data set [1] (DIO mice, once daily i.p. for 10 days, n = 8/group) was “did not affect”. The Glucose in data set [1] (terminal non-fasted blood glucose, day 10, once daily i.p., mean ± SEM, n = 8, SEM) amounted to 280 ± 11 mg/dL. In data set [1] (setting [2]), this compound gave an ALT of 86 ± 32 U/L, an AST of 95 ± 27 U/L, an Amylase of 2759 ± 75 U/L and a Cholesterol of 192 ± 28 mg/dL. In addition, in data set [1] (setting [2]), the Insulin is on record as 11.3 ± 4.1 ng/mL, the Lipase is 77 ± 49 U/L and the Triglycerides is 114 ± 6 mg/dL.
